According to patent publication US20250170121A1, “ISOQUINOLINONE COMPOUND, AND PREPARATION METHOD AND USE THEREFOR” (FUDAN UNIVERSITY, priority 2022, published 2025):

Tests used:
FABP3 = FABP3 (Homo sapiens, UniProt P05413); assay: FABP3 inhibition rate, ANS substrate competition method (illustrated by the FABP4 system); format: binding; conditions: compound 25 μM
Source text: (§1) Considering that inhibition of FABP3 would cause myocardial function damage and bring potential safety issues, we tested the inhibitory activity of some compounds on FABP3. The activity test is illustrated by the example of the FABP4 activity test system as below.
(§2) Experimental principle and method: Once the free non-covalent fluorescent probe ANS binds to FABP4, the ANS fluorescence intensity will increase and its spectrum will be blue shifted. In this experiment, the inhibitory effect of the compound on FABP4 was evaluated by measuring the change in the ANS fluorescence signal value. For the FABP4 inhibitory activity test, the ANS substrate competition method was used, and we used the method of Kane and Bernlohr (E. Marr, M. Tardie, M. Carty, T. Brown Phillips, I. K. Wang, W. Soeller, X. Qiu, G. Karam, Expression, purification, crystallization and structure of human adipocyte lipid-binding protein (aP2). Acta Crystallogr., Sect. F: Struct. Biol. Cryst. Commun. 62 (2006) 1058-1060.). Human FABP4 with a His tag was expressed in the BL21 (DE3) strain and then purified using a Ni column with a His tag to generate the protein. In the detection system, the concentration of 1,8-ANS substrate was 10 μM, the final concentration of FABP4 was 10 μM, and then the compound prepared by the present invention was added at the required concentration for incubation for 3 minutes, and finally the fluorescence signal was detected at an excitation wavelength (EX) of 370 nm/emission wavelength (EM) of 470 nm. The inhibition rate (%) of the test sample on FABP4 was calculated according to the fluorescence absorption value of the system. The inhibition rate (%) was calculated according to the following equation: […]
(§3) FX represents the fluorescence value (fluorescence, F) of the system measured in the presence of compound x;
(§4) Fbackground represents the fluorescence value of the fluorescent substrate ANS;
(§5) F0% represents the fluorescence value of the system when the inhibition rate is 0%, that is, when no compound was added.

Human FABP4 = biological target: T1, Human FABP4 (Homo sapiens, UniProt P15090); assay: FABP4 inhibition rate, ANS substrate competition (fluorescence) method; format: binding; conditions: compound 25 μM; 10 μM 1,8-ANS, 10 μM FABP4
T1 construct: His tag; made in house; host or cells: E. coli BL21 (DE3)
T1 sequence (P15090 whole entry): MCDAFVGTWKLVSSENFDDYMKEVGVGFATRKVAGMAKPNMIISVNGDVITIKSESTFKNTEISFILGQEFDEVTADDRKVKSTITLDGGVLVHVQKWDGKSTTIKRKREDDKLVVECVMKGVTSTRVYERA
Source text: as §1, §2, §3, §4, §5

FABP5 = FABP5 (Homo sapiens, UniProt Q01469); assay: FABP5 inhibition rate, ANS substrate competition method (illustrated by the FABP4 system); format: binding; conditions: compound 25 μM
Sequence of FABP5 (Q01469 whole entry): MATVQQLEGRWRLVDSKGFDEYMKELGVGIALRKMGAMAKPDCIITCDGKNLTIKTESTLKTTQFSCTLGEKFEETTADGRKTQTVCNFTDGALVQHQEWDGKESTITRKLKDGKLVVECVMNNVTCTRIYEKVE

[1] = test system: MCP-1 secretion in THP-1 cells; assay: MCP-1 secretion in LPS-stimulated THP-1 monocyte-derived macrophages (ELISA); format: cell-based; conditions: 25 μM, 10 μM and 5 μM; 18 h incubation, 100 ng/ml LPS 6 h; FIG. 2
Source text: (§6) In FIG. 2A to FIG. 2C, the vertical axis represents the amount (ng) of MCP-1 contained in each mg of cell protein: in FIG. 2D, the vertical axis represents the relative concentration of MCP-1 (ng/mg cellular protein % LPS). Wherein, Control represents blank control treatment, LPS represents lipopolysaccharide treatment, BMS309403 represents inhibitor positive control treatment, RO6806051 (RO) represents lead compound treatment, and Y2, Y3, Y15, Y16 and Y18 represent treatments with compounds Y2, Y3, Y15, Y16 and Y18 prepared in the present invention, respectively.
(§7) Effects of the compounds on monocyte chemoattractant factor-1 (MCP-1) and interleukin-6 (IL-6) in THP-1 monocyte-derived macrophage.
(§8) First, monocytic cell line THP-1 in logarithmic growth phase was plated on a 96-well plate at a cell density of 5*10^5/ml; then 100 nM phorbol myristate ester (PMA) was added to induce the cells for 24 hours to differentiate into macrophages; then the cells were washed once or twice with phosphate buffered saline (PBS), and different concentrations of compounds (5, 10, 25 μM) were added for incubation for 18 hours; finally, after 6 hours of stimulation with 100 ng/ml lipopolysaccharide (LPS), the supernatant was collected and diluted to a certain multiple and the contents of MCP-1 and IL-6 were detected using enzyme-linked immunosorbent assay (ELISA), and cell protein was collected and the protein concentration was measured by BCA method for calibration.

[2] = test system: IL-6 secretion in THP-1 cells; assay: IL-6 secretion in LPS-stimulated THP-1 monocyte-derived macrophages (ELISA); format: cell-based; conditions: FIG. 3
Source text: as §6, with “3,” for “2A to FIG. 2C,”, “protein.” for “protein: in FIG. 2D, the vertical axis represents the relative concentration of MCP-1 (ng/mg cellular protein % LPS).”, “Control (Con)” for “Control”
as §7, §8

Sequence of FABP3 (P05413 whole entry): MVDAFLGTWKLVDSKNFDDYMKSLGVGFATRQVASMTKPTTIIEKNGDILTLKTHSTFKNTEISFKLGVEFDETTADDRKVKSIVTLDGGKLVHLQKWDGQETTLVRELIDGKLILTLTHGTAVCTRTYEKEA

inhibition at 25 µM (FABP3) [%]	inhibition at 25 µM (Human FABP4) [%]	inhibition at 25 µM (FABP5) [%]	Compound	secretion of inflammatory factor MCP-1 in THP-1 mononuclear macrophages [1]	secretion of inflammatory factor IL-6 in THP-1 mononuclear macrophages ([2]; 25 μM)	IL-6 secretion, tendency (no concentration stated) [2]
1	36	36	Cc1nn(C)cc1-c1c(C(=O)O)n(C2CCCC2)c(=O)c2ccc(Cl)cc12 [Compound Y22, 6-Chloro-2-cyclopentyl-4-(1,3-dimethyl-1H-pyrazol-4-yl)-1-oxo-1,2-dihydroisoquinoline-3-carboxylic Acid]	–	–	–
–	1	14	O=C(O)c1c(-c2ccc(CO)cc2)c2cc(Cl)ccc2c(=O)n1C1CCCC1 [Compound Y17, 6-Chloro-2-cyclopentyl-4-(4-(hydroxymethyl)phenyl)-1-oxo-1,2-dihydroisoquinoline-3-carboxylic Acid]	–	–	–
28	92	52	O=C(O)c1c(-c2ccc(O)cc2)c2cc(Cl)ccc2c(=O)n1C1CCCC1 [Compound Y16, 6-Chloro-2-cyclopentyl-4-(4-hydroxyphenyl)-1-oxo-1,2-dihydroisoquinoline-3-carboxylic Acid]	could reduce the secretion of inflammatory factor MCP-1	–	–
–	32	25	O=C(O)c1c(-c2ccc3c(c2)CCO3)c2cc(Cl)ccc2c(=O)n1C1CCCC1 [Compound Y20, 6-Chloro-2-cyclopentyl-4-(2,3-dihydrobenzofuran-5-yl)-1-oxo-1,2-dihydroisoquinoline-3-carboxylic Acid]	–	–	–
26	90	55	Cc1ccc2c(=O)n(C3CCCC3)c(C(=O)O)c(-c3ccccc3)c2c1 [Compound Y14, 2-Cyclopentyl-6-methyl-1-oxo-4-phenyl-1,2-dihydroisoquinoline-3-carboxylic Acid]	–	–	–
9	76	31	O=C(O)c1c(-c2cccnc2)c2cc(Cl)ccc2c(=O)n1C1CCCC1 [Compound Y21, 6-Chloro-2-cyclopentyl-1-oxo-4-(pyridin-3-yl)-1,2-dihydroisoquinoline-3-carboxylic Acid]	–	–	–
16	91	46	O=C(O)c1c(-c2ccc(F)c(Cl)c2)c2cc(Cl)ccc2c(=O)n1C1CCCC1 [Compound Y18, 6-Chloro-4-(3-chloro-4-fluorophenyl)-2-cyclopentyl-1-oxo-1,2-dihydroisoquinoline-3-carboxylic Acid]	could reduce the secretion of inflammatory factor MCP-1	could reduce the secretion of inflammatory factor IL-6	tendency to reduce IL-6 secretion but with no statistical difference
27	91	52	O=C(O)c1c(-c2ccc(F)cc2)c2cc(Cl)ccc2c(=O)n1C1CCCC1 [Compound Y15, 6-Chloro-2-cyclopentyl-4-(4-fluorophenyl)-1-oxo-1,2-dihydroisoquinoline-3-carboxylic Acid]	could reduce the secretion of inflammatory factor MCP-1	–	tendency to reduce IL-6 secretion but with no statistical difference
3	14	22	O=C(O)c1c(-c2ccc(C(F)(F)F)cc2)c2cc(Cl)ccc2c(=O)n1C1CCCC1 [Compound Y19, 6-Chloro-2-cyclopentyl-1-oxo-4-(4-(trifluoromethyl)phenyl)-1,2-dihydroisoquinoline-3-carboxylic Acid]	–	–	–

Continued, molecule first:

Compound	inhibition at 25 µM (FABP3) [%]	inhibition at 25 µM (Human FABP4) [%]	inhibition at 25 µM (FABP5) [%]	secretion of inflammatory factor MCP-1 in THP-1 mononuclear macrophages [1]	secretion of inflammatory factor IL-6 in THP-1 mononuclear macrophages ([2]; 25 μM)	IL-6 secretion, tendency (no concentration stated) [2]
O=C(O)c1c(-c2ccccc2)c2cc(Cl)ccc2c(=O)n1C1CC1 [Compound Y5, 6-Chloro-2-cyclopropyl-1-oxo-4-phenyl-1,2-dihydroisoquinoline-3-carboxylic Acid]	82	88	43	–	–	–
O=C(O)c1c(-c2ccccc2)c2cc(Cl)ccc2c(=O)n1-c1ccc(Cl)cc1 [Compound Y8, 6-Chloro-2-(4-chlorophenyl)-1-oxo-4-phenyl-1,2-dihydroisoquinoline-3-carboxylic Acid]	–	35	1	–	–	–
O=C(O)c1c(-c2ccccc2)c2cc(Cl)ccc2c(=O)n1C1CCOCC1 [Compound Y4, 6-Chloro-1-oxo-4-phenyl-2-(tetrahydro-2H-pyran-4-yl)-1,2-dihydroisoquinoline-3-carboxylic Acid]	14	71	50	–	–	–
O=C(O)c1c(-c2ccccc2)c2ccccc2c(=O)n1C1CCCC1 [Compound Y12, 2-Cyclopentyl-1-oxo-4-phenyl-1,2-dihydroisoquinoline-3-carboxylic Acid]	–	58	25	–	–	–
O=C(O)c1c(-c2ccccc2)c2cc(F)ccc2c(=O)n1C1CCCC1 [Compound Y13, 2-Cyclopentyl-6-fluoro-1-oxo-4-phenyl-1,2-dihydroisoquinoline-3-carboxylic Acid]	11	89	43	–	–	–
O=C(O)c1c(-c2ccccc2)c2cc(Br)ccc2c(=O)n1C1CCCC1 [Compound Y10, 6-Bromo-2-cyclopentyl-1-oxo-4-phenyl-1,2-dihydroisoquinoline-3-carboxylic Acid]	57	95	58	–	–	–
O=C(O)c1c(-c2ccccc2)c2cc(Cl)ccc2c(=O)n1N1CCCCC1 [Compound Y9, 6-Chloro-1-oxo-4-phenyl-2-(piperidin-1-yl)-1,2-dihydroisoquinoline-3-carboxylic Acid]	59	95	72	–	–	–
O=C(O)c1c(-c2ccccc2)c2cc(Cl)ccc2c(=O)n1C1CCCCC1 [Compound Y1, 6-Chloro-2-cyclohexyl-1-oxo-4-phenyl-1,2-dihydroisoquinoline-3-carboxylic Acid]	29	70	50	–	–	–
O=C(O)c1c(-c2ccccc2)c2cc(Cl)ccc2c(=O)n1C1CCC1 [Compound Y6, 6-Chloro-2-cyclobutyl-1-oxo-4-phenyl-1,2-dihydroisoquinoline-3-carboxylic Acid]	81	94	60	–	–	–
O=C(O)c1c(-c2ccccc2)c2cc(Cl)ccc2c(=O)n1C1CCCCCC1 [Compound Y7, 6-Chloro-2-cycloheptyl-1-oxo-4-phenyl-1,2-dihydroisoquinoline-3-carboxylic Acid]	18	78	57	–	–	–
O=C(O)c1c(-c2ccccc2)c2cc(Cl)c(Cl)cc2c(=O)n1C1CCCC1 [Compound Y11, 6,7-Dichloro-2-cyclopentyl-1-oxo-4-phenyl-1,2-dihydroisoquinoline-3-carboxylic Acid]	48	77	41	–	–	–
